From ChEMBL document CHEMBL1201862, “PubChem BioAssay data set” (2004)
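96-well plates; 48 h exposure; 5 concentrations. Endpoints by linear interpolation between flanking doses. Not reached: highest tested concentration assigned. Abbreviation: GI50, concentration required for 50% inhibition of growth.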 The source made the active and inactive calls. Cut-off read from the data, not from the text of the source: active = GI50 up to about 1.1 µM and inactive = higher.

Assays:
Assay in all cases: NCI anticancer screen, dose series, 48 h
DU-145 = test system: DU-145
MOLT-4 = test system: MOLT-4
UACC-257 = test system: UACC-257
T47D = test system: T47D
SK-MEL-5 = test system: SK-MEL-5
A498 = test system: A498
MDA-N = test system: MDA-N
SNB-19 = test system: SNB-19
HOP-92 = test system: HOP-92
TK-10 = test system: TK-10
MDA-MB-231 = test system: MDA-MB-231
CAKI-1 = test system: CAKI-1
SF-295 = test system: SF-295
BT-549 = test system: BT-549
Hs-578T = test system: Hs-578T
SF-539 = test system: SF-539
SNB-75 = test system: SNB-75
IGROV-1 = test system: IGROV-1
UACC-62 = test system: UACC-62
ACHN = test system: ACHN
SW-620 = test system: SW-620
SR = test system: SR
CCRF-CEM = test system: CCRF-CEM
SK-OV-3 = test system: SK-OV-3
HCT-15 = test system: HCT-15
SK-MEL-2 = test system: SK-MEL-2
RPMI-8226 = test system: RPMI-8226
PC-3 = test system: PC-3
NCI-H522 = test system: NCI-H522
MCF7 = test system: MCF7
NCI/ADR-RES = test system: NCI/ADR-RES
OVCAR-8 = test system: OVCAR-8
Malme-3M = test system: Malme-3M
SN12C = test system: SN12C
COLO 205 = test system: COLO 205
HT-29 = test system: HT-29
NCI-H226 = test system: NCI-H226
OVCAR-5 = test system: OVCAR-5
M14 = test system: M14
SF-268 = test system: SF-268
HOP-62 = test system: HOP-62
KM12 = test system: KM12
SK-MEL-28 = test system: SK-MEL-28
U-251 = test system: U-251
K562 = test system: K562
OVCAR-3 = test system: OVCAR-3
786-0 = test system: 786-0
UO-31 = test system: UO-31
RXF 393 = test system: RXF 393
MDA-MB-435 = test system: MDA-MB-435
HCC 2998 = test system: HCC 2998
OVCAR-4 = test system: OVCAR-4
NCI-H460 = test system: NCI-H460
LOX IMVI = test system: LOX IMVI
EKVX = test system: EKVX
HCT-116 = test system: HCT-116
A549 = test system: A549
NCI-H23 = test system: NCI-H23

With N#CC(C#N)=C1c2ccccc2C(=NN)c2ccccc21 the GI50 (DU-145) was 5.25 µM (inactive), the GI50 (MOLT-4) was > 100 µM (inactive) and the GI50 (UACC-257) was > 100 µM (inactive). The GI50 (T47D) was 0.508 µM (active), the GI50 (SK-MEL-5) was 14.8 µM (inactive) and the GI50 (A498) was > 28.7 µM (inactive). For the same molecule, the GI50 (MDA-N) was > 100 µM (inactive), the GI50 (SNB-19) was > 100 µM (inactive) and the GI50 (HOP-92) was > 100 µM (inactive). The GI50 (TK-10) was > 100 µM (inactive), the GI50 (MDA-MB-231) was > 79.8 µM (inactive) and the GI50 (CAKI-1) was > 25.7 µM (inactive). The GI50 (SF-295) was 4.83 µM (inactive), the GI50 (BT-549) was > 100 µM (inactive) and the GI50 (Hs-578T) was 9.57 µM (inactive). For the same molecule, the GI50 (SF-539) was > 56.1 µM (inactive), the GI50 (SNB-75) was > 43.9 µM (inactive) and the GI50 (IGROV-1) was > 100 µM (inactive). For the same molecule, the GI50 (UACC-62) was > 43.5 µM (inactive), the GI50 (ACHN) was 12.3 µM (inactive) and the GI50 (SW-620) was > 100 µM (inactive). The GI50 (SR) was > 100 µM (inactive), the GI50 (CCRF-CEM) was > 100 µM (inactive) and the GI50 (SK-OV-3) was > 100 µM (inactive). For the same molecule, the GI50 (HCT-15) was greater than 100 µM, the GI50 (SK-MEL-2) was > 100 µM (inactive) and the GI50 (RPMI-8226) was > 100 µM (inactive). The GI50 (PC-3) was > 100 µM (inactive), the GI50 (NCI-H522) was 3.58 µM (inactive) and the GI50 (MCF7) was > 100 µM (inactive). The GI50 (NCI/ADR-RES) was > 100 µM (inactive), the GI50 (OVCAR-8) was > 100 µM (inactive) and the GI50 (Malme-3M) was 92.9 µM (inactive). For the same molecule, the GI50 (SN12C) was > 100 µM (inactive), the GI50 (COLO 205) was > 100 µM (inactive) and the GI50 (HT-29) was > 100 µM (inactive). The GI50 (NCI-H226) was > 100 µM (inactive), the GI50 (OVCAR-5) was > 100 µM (inactive) and the GI50 (M14) was 88.1 µM (inactive). The GI50 (SF-268) was > 61.4 µM (inactive), the GI50 (HOP-62) was 10.6 µM (inactive) and the GI50 (KM12) was > 100 µM (inactive). The GI50 (SK-MEL-28) was > 100 µM (inactive), the GI50 (U-251) was 37.3 µM (inactive) and the GI50 (K562) was > 100 µM (inactive). The GI50 (OVCAR-3) was > 100 µM (inactive), the GI50 (786-0) was > 54.8 µM (inactive) and the GI50 (UO-31) was > 100 µM (inactive). For the same molecule, the GI50 (RXF 393) was 27.5 µM (inactive), the GI50 (MDA-MB-435) was > 100 µM (inactive) and the GI50 (HCC 2998) was > 100 µM (inactive).

For CC1OC(OC2C(OC3CCC4(C)C(CCC5(C)C4CC=C4C6CC(C)(C)CCC6(C(=O)O)CCC45C)C3(C)CO)OCC(O)C2O)C(O)C(O)C1O (configuration not stated), the GI50 (DU-145) was 18.9 µM (inactive), the GI50 (MOLT-4) was 14.6 µM (inactive) and the GI50 (UACC-257) was 18.5 µM (inactive). For the same molecule, the GI50 (T47D) was 22.1 µM (inactive), the GI50 (SK-MEL-5) was 17.8 µM (inactive) and the GI50 (A498) was 14.2 µM (inactive). The GI50 (MDA-N) was 21.1 µM (inactive), the GI50 (SNB-19) was 15.8 µM (inactive) and the GI50 (HOP-92) was 10.1 µM (inactive). The GI50 (TK-10) was 20 µM (inactive), the GI50 (OVCAR-4) was 11.8 µM (inactive) and the GI50 (MDA-MB-231) was 17.9 µM (inactive). For the same molecule, the GI50 (CAKI-1) was 18.5 µM (inactive), the GI50 (SF-295) was 15.1 µM (inactive) and the GI50 (NCI-H460) was 19 µM (inactive). For the same molecule, the GI50 (BT-549) was 16.7 µM (inactive), the GI50 (Hs-578T) was 14.1 µM (inactive) and the GI50 (SF-539) was 15.5 µM (inactive). The GI50 (SNB-75) was 14.2 µM (inactive), the GI50 (IGROV-1) was 15.6 µM (inactive) and the GI50 (UACC-62) was 8.05 µM (inactive). For the same molecule, the GI50 (ACHN) was 19 µM (inactive), the GI50 (SW-620) was 11.7 µM (inactive) and the GI50 (SR) was 3.33 µM (inactive). The GI50 (CCRF-CEM) was 4.68 µM (inactive), the GI50 (SK-OV-3) was 18.1 µM (inactive) and the GI50 (HCT-15) was 20.9 µM. The GI50 (SK-MEL-2) was 17.7 µM (inactive), the GI50 (PC-3) was 13 µM (inactive) and the GI50 (NCI-H522) was 13.3 µM (inactive). For the same molecule, the GI50 (MCF7) was 0.46 µM (active), the GI50 (NCI/ADR-RES) was 20.9 µM (inactive) and the GI50 (OVCAR-8) was 20.3 µM (inactive). For the same molecule, the GI50 (Malme-3M) was 19.3 µM (inactive), the GI50 (SN12C) was 21.1 µM (inactive) and the GI50 (COLO 205) was 20.8 µM (inactive). The GI50 (LOX IMVI) was 11.1 µM (inactive), the GI50 (EKVX) was 20.4 µM (inactive) and the GI50 (HT-29) was 15.5 µM (inactive). The GI50 (NCI-H226) was 21.2 µM (inactive), the GI50 (OVCAR-5) was 19.8 µM (inactive) and the GI50 (HCT-116) was 7.4 µM (inactive). The GI50 (A549) was 19.1 µM (inactive), the GI50 (SF-268) was 17.1 µM (inactive) and the GI50 (HOP-62) was 29.6 µM (inactive). The GI50 (KM12) was 7.1 µM (inactive), the GI50 (SK-MEL-28) was 6.37 µM (inactive) and the GI50 (U-251) was 21.9 µM (inactive). For the same molecule, the GI50 (K562) was 11.6 µM (inactive), the GI50 (OVCAR-3) was 27.3 µM (inactive) and the GI50 (NCI-H23) was 17.7 µM (inactive). The GI50 (786-0) was 30.7 µM (inactive), the GI50 (UO-31) was 3.66 µM (inactive) and the GI50 (RXF 393) was 2.72 µM (inactive). The GI50 (MDA-MB-435) was 18.7 µM (inactive) and the GI50 (HCC 2998) was 13.4 µM (inactive).
